Assay results from ChEMBL document CHEMBL1201862, “PubChem BioAssay data set” (2004).
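Dose response: 5 concentrations. Exposure: 48 h. Format: 96-well plates. Endpoint: linear interpolation; highest concentration if not reached. Here, GI50 denotes the concentration required for 50% inhibition of growth.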 Calls of active or inactive are those of the source. Cut-off read from the data, not from the text of the source: active = GI50 up to about 1.1 µM and inactive = higher.

Legend:
Assay in all cases: NCI anticancer screen, dose series, 48 h
A549 = test system: A549
COLO 205 = test system: COLO 205
HCC 2998 = test system: HCC 2998
HL-60 = test system: HL-60
HT-29 = test system: HT-29
K562 = test system: K562
KM12 = test system: KM12
M14 = test system: M14
Malme-3M = test system: Malme-3M
NCI/ADR-RES = test system: NCI/ADR-RES
OVCAR-8 = test system: OVCAR-8
PC-3 = test system: PC-3
SF-539 = test system: SF-539
SN12C = test system: SN12C
SNB-19 = test system: SNB-19
TK-10 = test system: TK-10
UACC-257 = test system: UACC-257
UACC-62 = test system: UACC-62

| Compound | GI50 (A549) | GI50 (COLO 205) | GI50 (HCC 2998) | GI50 (HL-60) | GI50 (HT-29) | GI50 (K562) | GI50 (KM12) | GI50 (M14) | GI50 (Malme-3M) | GI50 (NCI/ADR-RES) | GI50 (OVCAR-8) | GI50 (PC-3) | GI50 (SF-539) | GI50 (SN12C) | GI50 (SNB-19) | GI50 (TK-10) | GI50 (UACC-257) | GI50 (UACC-62) |
| --- | --- | --- | --- | --- | --- | --- | --- | --- | --- | --- | --- | --- | --- | --- | --- | --- | --- | --- |
| Nc1ccccc1SC(C[N+](=O)[O-])c1ccc2c(c1)OCO2 (stereo unspecified) | 3.1 µM (inactive) | 3.71 µM (inactive) | 1.78 µM (inactive) | 1.9 µM (inactive) | 1.89 µM (inactive) | 1.63 µM (inactive) | 2.44 µM (inactive) | 1.62 µM (inactive) | 15.7 µM (inactive) | 20.5 µM (inactive) | 2.78 µM (inactive) | 7.66 µM (inactive) | 2.24 µM (inactive) | 3.37 µM (inactive) | 12 µM (inactive) | 2.63 µM (inactive) | 1.81 µM (inactive) | 13.2 µM (inactive) |
| O=C(Cc1ccccc1)N/N=C/c1ccccc1O | 26.1 µM (inactive) | 4.09 µM (inactive) | 11.2 µM (inactive) | 6.3 µM (inactive) | 4.84 µM (inactive) | 13.9 µM (inactive) | 32.7 µM (inactive) | 10.5 µM (inactive) | 12.6 µM (inactive) | 3.98 µM (inactive) | 8.93 µM (inactive) | 82.6 µM (inactive) | 24.8 µM (inactive) | 17.2 µM (inactive) | 33.1 µM (inactive) | 22.4 µM (inactive) | 9.57 µM (inactive) | 8.95 µM (inactive) |
| O=[N+]([O-])C(/C=C(\Cl)[N+](=O)[O-])=C(Nc1ccccc1)Nc1ccccc1 | 17 µM (inactive) | 8.53 µM (inactive) | 21.4 µM (inactive) | 2.59 µM (inactive) | 6.21 µM (inactive) | 2.94 µM (inactive) | 11.9 µM (inactive) | 9.84 µM (inactive) | 8.67 µM (inactive) | 7.93 µM (inactive) | 8.41 µM (inactive) | 14.6 µM (inactive) | 11.2 µM (inactive) | 15.5 µM (inactive) | 17.5 µM (inactive) | 12.8 µM (inactive) | 13.9 µM (inactive) | 7.45 µM (inactive) |
| O=C(CC(=O)Nc1ccccc1)NNC(Sc1ccccc1)c1cc(/N=N/c2ccc(Br)cc2)ccc1O (stereo unspecified) | 3.85 µM (inactive) | 3.2 µM (inactive) | > 10 µM (inactive) | 0.356 µM (active) | 8.13 µM (inactive) | 2.54 µM (inactive) | 4.07 µM (inactive) | 0.973 µM (active) | 4.26 µM (inactive) | 1.26 µM (inactive) | – | 1.45 µM (inactive) | 1.66 µM (inactive) | 1.89 µM (inactive) | > 10 µM (inactive) | 1.45 µM (inactive) | 4.29 µM (inactive) | 2.09 µM (inactive) |
| CC(C)Oc1cccc(N2C(CCc3c[nH]c4ccc(Br)cc34)=NS(=O)(=O)c3cnccc32)c1 | 29.2 µM (inactive) | 17.9 µM (inactive) | 60.4 µM (inactive) | 23.3 µM (inactive) | 26.2 µM (inactive) | 27 µM (inactive) | 49.7 µM (inactive) | 32.5 µM (inactive) | 80 µM (inactive) | 44 µM (inactive) | 51.2 µM (inactive) | 24.7 µM (inactive) | 75.7 µM (inactive) | 69 µM (inactive) | 49.5 µM (inactive) | 53.8 µM (inactive) | 50.8 µM (inactive) | 33.3 µM (inactive) |
| CCCC(=O)OC(OC(=O)CCC)c1ccc([N+](=O)[O-])o1 | > 100 µM (inactive) | 23.3 µM (inactive) | 15.9 µM (inactive) | 26.3 µM (inactive) | 22.6 µM (inactive) | 34 µM (inactive) | 37.6 µM (inactive) | 19.8 µM (inactive) | 19.2 µM (inactive) | 39.2 µM (inactive) | 32.2 µM (inactive) | 61.7 µM (inactive) | 35.7 µM (inactive) | 17.3 µM (inactive) | > 100 µM (inactive) | 19.4 µM (inactive) | 21.4 µM (inactive) | 20.9 µM (inactive) |
| CCOC(=O)C1=C(C)NC(C)=C(C(=O)OCCNC(=O)c2ccc(N=[N+]=[N-])cc2)C1c1ccccc1C(F)(F)F (stereo unspecified) [AZIDOPINE] | 8 µM (inactive) | 6.25 µM (inactive) | 13.2 µM (inactive) | 7.66 µM (inactive) | 9.46 µM (inactive) | 7.83 µM (inactive) | 7.85 µM (inactive) | 9.98 µM (inactive) | 14 µM (inactive) | 8.28 µM (inactive) | 14.8 µM (inactive) | 3.28 µM (inactive) | 19.1 µM (inactive) | 15.1 µM (inactive) | 15.4 µM (inactive) | 8.22 µM (inactive) | 11.5 µM (inactive) | 11.2 µM (inactive) |
| O=c1oc2ccc([N+](=O)[O-])cc2c(Nc2ccc3c(c2)Sc2ccccc2O3)c1[N+](=O)[O-] | 24.9 µM (inactive) | 19.3 µM (inactive) | 13.6 µM (inactive) | 18.6 µM (inactive) | 27.2 µM (inactive) | 24.2 µM (inactive) | 21.5 µM (inactive) | 19.4 µM (inactive) | 30.7 µM (inactive) | 29.5 µM (inactive) | 25.3 µM (inactive) | 19.5 µM (inactive) | 19.8 µM (inactive) | 20 µM (inactive) | 17.9 µM (inactive) | 27.4 µM (inactive) | 23.2 µM (inactive) | 15 µM (inactive) |
| CCOC(=O)C(NC(=O)CC(C)C)(N1CCN(c2cc3c(cc2F)c(=O)c(C(=O)O)cn3C2CC2)CC1)C(F)(F)F (stereo unspecified) | 27.5 µM (inactive) | 16.7 µM (inactive) | 12 µM (inactive) | 5.75 µM (inactive) | 29.3 µM (inactive) | 11 µM (inactive) | 13.6 µM (inactive) | 20 µM (inactive) | 17.6 µM (inactive) | 19.7 µM (inactive) | 21.1 µM (inactive) | 15 µM (inactive) | 17.5 µM (inactive) | 27.5 µM (inactive) | 28.8 µM (inactive) | 10.3 µM (inactive) | 16.7 µM (inactive) | 15.2 µM (inactive) |
| C=CCc1ccccc1C1CC2(C(=O)OC)OC1C(C(=O)OC)=C2C(=O)OC (stereo unspecified) | > 10 µM (inactive) | > 10 µM (inactive) | > 10 µM (inactive) | > 10 µM (inactive) | > 10 µM (inactive) | > 10 µM (inactive) | > 10 µM (inactive) | > 10 µM (inactive) | > 10 µM (inactive) | > 10 µM (inactive) | > 10 µM (inactive) | > 10 µM (inactive) | > 10 µM (inactive) | > 10 µM (inactive) | > 10 µM (inactive) | > 10 µM (inactive) | > 10 µM (inactive) | > 10 µM (inactive) |
| O=C1/C(=C/c2ccc(Cl)cc2)N=C(c2ccccc2)N1c1ccc(S(=O)(=O)Nc2nccs2)cc1 | 52.4 µM (inactive) | 20.6 µM (inactive) | 18.9 µM (inactive) | 30.5 µM (inactive) | 21.9 µM (inactive) | 33 µM (inactive) | 24.8 µM (inactive) | 47.5 µM (inactive) | 30.9 µM (inactive) | 60.5 µM (inactive) | – | 31.6 µM (inactive) | 88.3 µM (inactive) | 64 µM (inactive) | 40.7 µM (inactive) | 70.5 µM (inactive) | 32.7 µM (inactive) | 18.7 µM (inactive) |
